From the NIST ThermoML archive (doi:10.1021/je5009125)

Experiment: xn = mol fraction of the nth substance listed
Conditions: Liquid; for mass density: Vibrating tube method; for viscosity: Vibrating wire viscometry

O=C=O [carbon dioxide] + O
Conditions	mass density [kg/m3]	viscosity [mPa·s]
274.72 K, 30290 kPa, x1 = 0.0271	1030.1	–
274.72 K, 50410 kPa, x1 = 0.0271	1038.8	–
274.72 K, 70530 kPa, x1 = 0.0271	1047.2	–
274.72 K, 100770 kPa, x1 = 0.0271	1059.2	–
274.73 K, 15010 kPa, x1 = 0.0086	1012	–
274.73 K, 30110 kPa, x1 = 0.0086	1019	–
274.73 K, 50240 kPa, x1 = 0.0086	1028.1	–
274.73 K, 70360 kPa, x1 = 0.0086	1036.8	–
274.73 K, 100670 kPa, x1 = 0.0086	1049.3	–
274.77 K, 15080 kPa, x1 = 0.0168	1017.3	–
274.77 K, 30190 kPa, x1 = 0.0168	1024.1	–
274.77 K, 50310 kPa, x1 = 0.0168	1033	–
274.77 K, 70430 kPa, x1 = 0.0168	1041.6	–
274.77 K, 100710 kPa, x1 = 0.0168	1053.9	–
294.27 K, 15100 kPa, x1 = 0.0168	–	1.049
294.27 K, 30200 kPa, x1 = 0.0168	–	1.044
294.27 K, 50200 kPa, x1 = 0.0168	–	1.044
294.27 K, 70200 kPa, x1 = 0.0168	–	1.041
294.27 K, 96300 kPa, x1 = 0.0168	–	1.046
294.3 K, 15100 kPa, x1 = 0.0086	–	1.013
294.3 K, 30200 kPa, x1 = 0.0086	–	1.014
294.3 K, 50300 kPa, x1 = 0.0086	–	1.012
294.3 K, 70300 kPa, x1 = 0.0086	–	1.008
294.3 K, 96400 kPa, x1 = 0.0086	–	1.008
294.31 K, 30300 kPa, x1 = 0.0271	–	1.096
294.31 K, 50300 kPa, x1 = 0.0271	–	1.095
294.31 K, 70400 kPa, x1 = 0.0271	–	1.097
294.31 K, 96500 kPa, x1 = 0.0271	–	1.1
296.17 K, 15100 kPa, x1 = 0.0086	1008.6	–
296.17 K, 30200 kPa, x1 = 0.0086	1015	–
296.17 K, 50260 kPa, x1 = 0.0086	1023.4	–
296.17 K, 70330 kPa, x1 = 0.0086	1031.4	–
296.17 K, 100650 kPa, x1 = 0.0086	1042.9	–
296.18 K, 30250 kPa, x1 = 0.0271	1025.3	–
296.18 K, 50360 kPa, x1 = 0.0271	1033.4	–
296.18 K, 70440 kPa, x1 = 0.0271	1041.2	–
296.18 K, 100760 kPa, x1 = 0.0271	1052.6	–
296.19 K, 15070 kPa, x1 = 0.0168	1013.3	–
296.19 K, 30170 kPa, x1 = 0.0168	1019.7	–
296.19 K, 50300 kPa, x1 = 0.0168	1027.9	–
296.19 K, 70410 kPa, x1 = 0.0168	1035.9	–
296.19 K, 100730 kPa, x1 = 0.0168	1047.3	–
322.91 K, 15000 kPa, x1 = 0.0168	–	0.568
322.91 K, 30100 kPa, x1 = 0.0168	–	0.573
322.91 K, 50200 kPa, x1 = 0.0168	–	0.578
322.91 K, 70200 kPa, x1 = 0.0168	–	0.584
322.91 K, 96200 kPa, x1 = 0.0168	–	0.592
322.93 K, 15000 kPa, x1 = 0.0086	–	0.56
322.93 K, 30100 kPa, x1 = 0.0086	–	0.564
322.93 K, 50200 kPa, x1 = 0.0086	–	0.568
322.93 K, 70200 kPa, x1 = 0.0086	–	0.573
322.93 K, 96300 kPa, x1 = 0.0086	–	0.582
323.12 K, 70400 kPa, x1 = 0.0271	–	0.606
323.12 K, 96500 kPa, x1 = 0.0271	–	0.615
323.43 K, 15060 kPa, x1 = 0.0168	1002.5	–
323.43 K, 30180 kPa, x1 = 0.0168	1008.8	–
323.43 K, 50300 kPa, x1 = 0.0168	1016.9	–
323.43 K, 70420 kPa, x1 = 0.0168	1024.6	–
323.43 K, 70460 kPa, x1 = 0.0271	1029.6	–
323.43 K, 100720 kPa, x1 = 0.0168	1035.7	–
323.43 K, 100780 kPa, x1 = 0.0271	1040.7	–
323.45 K, 15020 kPa, x1 = 0.0086	998.4	–
323.45 K, 30130 kPa, x1 = 0.0086	1004.7	–
323.45 K, 50250 kPa, x1 = 0.0086	1012.8	–
323.45 K, 70360 kPa, x1 = 0.0086	1020.6	–
323.45 K, 100720 kPa, x1 = 0.0086	1031.6	–
348.32 K, 15050 kPa, x1 = 0.0086	984.8	–
348.32 K, 30150 kPa, x1 = 0.0086	991.3	–
348.32 K, 50270 kPa, x1 = 0.0086	999.5	–
348.32 K, 70370 kPa, x1 = 0.0086	1007.3	–
348.32 K, 100710 kPa, x1 = 0.0086	1018.6	–
348.33 K, 70580 kPa, x1 = 0.0271	1015.3	–
348.33 K, 100780 kPa, x1 = 0.0271	1026.8	–
348.38 K, 30200 kPa, x1 = 0.0168	994.9	–
348.38 K, 50320 kPa, x1 = 0.0168	1003.2	–
348.38 K, 70450 kPa, x1 = 0.0168	1011.1	–
348.38 K, 100740 kPa, x1 = 0.0168	1022.4	–
373.03 K, 30100 kPa, x1 = 0.0168	–	0.2932
373.03 K, 50200 kPa, x1 = 0.0168	–	0.2989
373.03 K, 70200 kPa, x1 = 0.0168	–	0.304
373.03 K, 96200 kPa, x1 = 0.0168	–	0.3111
373.13 K, 15000 kPa, x1 = 0.0086	–	0.286
373.13 K, 30100 kPa, x1 = 0.0086	–	0.291
373.13 K, 50200 kPa, x1 = 0.0086	–	0.297
373.13 K, 70300 kPa, x1 = 0.0086	–	0.302
373.13 K, 96400 kPa, x1 = 0.0086	–	0.308
373.38 K, 70590 kPa, x1 = 0.0271	998.2	–
373.38 K, 100800 kPa, x1 = 0.0271	1010.3	–
373.42 K, 15090 kPa, x1 = 0.0086	967.8	–
373.42 K, 30180 kPa, x1 = 0.0086	974.6	–
373.42 K, 50280 kPa, x1 = 0.0086	983.2	–
373.42 K, 70390 kPa, x1 = 0.0086	991.5	–
373.42 K, 100710 kPa, x1 = 0.0086	1003.2	–
373.46 K, 30190 kPa, x1 = 0.0168	977.8	–
373.46 K, 50320 kPa, x1 = 0.0168	986.5	–
373.46 K, 70450 kPa, x1 = 0.0168	994.9	–
373.46 K, 100740 kPa, x1 = 0.0168	1006.7	–
374.09 K, 70300 kPa, x1 = 0.0271	–	0.309
374.09 K, 96400 kPa, x1 = 0.0271	–	0.318
397.88 K, 30100 kPa, x1 = 0.0168	–	0.233
397.88 K, 50200 kPa, x1 = 0.0168	–	0.238
397.88 K, 70200 kPa, x1 = 0.0168	–	0.244
397.88 K, 96300 kPa, x1 = 0.0168	–	0.25
397.98 K, 30100 kPa, x1 = 0.0086	–	0.231
397.98 K, 50200 kPa, x1 = 0.0086	–	0.236
397.98 K, 70300 kPa, x1 = 0.0086	–	0.242
397.98 K, 96400 kPa, x1 = 0.0086	–	0.248
398.48 K, 50470 kPa, x1 = 0.0271	970	–
398.48 K, 70600 kPa, x1 = 0.0271	979.3	–
398.48 K, 100800 kPa, x1 = 0.0271	992.1	–
398.55 K, 15060 kPa, x1 = 0.0086	948.3	–
398.55 K, 30170 kPa, x1 = 0.0086	955.6	–
398.55 K, 30190 kPa, x1 = 0.0168	958.2	–
398.55 K, 50290 kPa, x1 = 0.0086	964.9	–
398.55 K, 50330 kPa, x1 = 0.0168	967.8	–
398.55 K, 70390 kPa, x1 = 0.0086	973.7	–
398.55 K, 70460 kPa, x1 = 0.0168	976.7	–
398.55 K, 100710 kPa, x1 = 0.0086	986	–
398.55 K, 100730 kPa, x1 = 0.0168	989.4	–
398.98 K, 50200 kPa, x1 = 0.0271	–	0.241
398.98 K, 70200 kPa, x1 = 0.0271	–	0.245
398.98 K, 96300 kPa, x1 = 0.0271	–	0.254
422.91 K, 30000 kPa, x1 = 0.0168	–	0.192
422.91 K, 50100 kPa, x1 = 0.0168	–	0.196
422.91 K, 70200 kPa, x1 = 0.0168	–	0.202
422.91 K, 96200 kPa, x1 = 0.0168	–	0.208
423.82 K, 50200 kPa, x1 = 0.0271	–	0.198
423.82 K, 70300 kPa, x1 = 0.0271	–	0.204
423.82 K, 96500 kPa, x1 = 0.0271	–	0.21
423.84 K, 50460 kPa, x1 = 0.0271	948	–
423.84 K, 70580 kPa, x1 = 0.0271	958.1	–
423.84 K, 100810 kPa, x1 = 0.0271	972.1	–
423.92 K, 15070 kPa, x1 = 0.0086	925.9	–
423.92 K, 30180 kPa, x1 = 0.0086	934	–
423.92 K, 50300 kPa, x1 = 0.0086	944.2	–
423.92 K, 70420 kPa, x1 = 0.0086	953.8	–
423.92 K, 100710 kPa, x1 = 0.0086	967.1	–
423.93 K, 30200 kPa, x1 = 0.0168	935.7	–
423.93 K, 50340 kPa, x1 = 0.0168	946.2	–
423.93 K, 70460 kPa, x1 = 0.0168	956	–
423.93 K, 100730 kPa, x1 = 0.0168	969.7	–
424.03 K, 30100 kPa, x1 = 0.0086	–	0.19
424.03 K, 50200 kPa, x1 = 0.0086	–	0.194
424.03 K, 70200 kPa, x1 = 0.0086	–	0.199
424.03 K, 96400 kPa, x1 = 0.0086	–	0.205
448.29 K, 30000 kPa, x1 = 0.0168	–	0.163
448.29 K, 50100 kPa, x1 = 0.0168	–	0.168
448.29 K, 70100 kPa, x1 = 0.0168	–	0.173
448.29 K, 96200 kPa, x1 = 0.0168	–	0.179
448.71 K, 50200 kPa, x1 = 0.0271	–	0.169
448.71 K, 70200 kPa, x1 = 0.0271	–	0.173
448.71 K, 96400 kPa, x1 = 0.0271	–	0.179
448.93 K, 30000 kPa, x1 = 0.0086	–	0.162
448.93 K, 50100 kPa, x1 = 0.0086	–	0.167
448.93 K, 70200 kPa, x1 = 0.0086	–	0.172
448.93 K, 96300 kPa, x1 = 0.0086	–	0.178
449.17 K, 50450 kPa, x1 = 0.0271	923.6	–
449.17 K, 70570 kPa, x1 = 0.0271	934.9	–
449.17 K, 100800 kPa, x1 = 0.0271	950.3	–
449.2 K, 15080 kPa, x1 = 0.0086	900.7	–
449.2 K, 30190 kPa, x1 = 0.0086	909.9	–
449.2 K, 30210 kPa, x1 = 0.0168	910.8	–
449.2 K, 50310 kPa, x1 = 0.0086	921.3	–
449.2 K, 50360 kPa, x1 = 0.0168	922.6	–
449.2 K, 70420 kPa, x1 = 0.0086	931.8	–
449.2 K, 70470 kPa, x1 = 0.0168	933.5	–
449.2 K, 100710 kPa, x1 = 0.0086	946.4	–
449.2 K, 100740 kPa, x1 = 0.0168	948.4	–
